In US6664442B2, “Selecting compounds to reduce inflammation associated with Alzheimer's disease” (Elan Pharmaceuticals, Inc., priority 2000, dated 2003):

Legend:
Assay type in all cases: in vivo, mouse
[1] = system: MCP-1; test: mRNA expression of MCP-1 in PDAPP mice immunized with Aβ1-42 or a fragment, quantitative RT-PCR; settings: tissue not given
Description: (§1) RNA was isolated from brain tissues using the S.N.A.P.™ Total RNA Isolation Kit (Invitrogen, Carlsbad, Calif.) according to manufacturer's instructions, with the following modifications: the tissue was homogenized for 20 seconds using a rotor-stator homogenizer (Fisher Scientific). The DNA digestion step was repeated a second time following isopropanol precipitation.
(§2) Quantitative PCR assays were run on a Perkin Elmer 7700 Sequencer using methods and materials provided by Perkin Elmer (Applied Biosystems Division, Foster City, Calif.). Primers and fluorescent probes were obtained from Perkin Elmer; the sequences and concentrations of primers and probes used for the various assays are listed in Table 1 below. PCR reactions were set up using approximately 300 nM concentrations of each of the forward and reverse primers, 100 nM probe and RNA extracted from the tissue of interest (20 ng). Each reaction also included a standard RNA for comparison. Data were normalized to total RNA or to GAPDH. Standard curves were run using standard RNA prepared from the appropriate tissue (e.g., brain total RNA). Sample results were normalized to the amount of RNA measured by OD and or control message (e.g., GAPDH).
(§3) Thus, the efficacy of Aβ-treatment can be assessed by comparing the mRNA expression of such markers.

[2] = system: Igk; test: mRNA expression of Igk in PDAPP mice immunized with Aβ1-42 or a fragment, quantitative RT-PCR; settings: tissue not given
Description: as §1, §2, §3

[3] = system: IFN-γ; test: mRNA expression of IFN-γ in PDAPP mice immunized with Aβ1-42 or a fragment, quantitative RT-PCR; settings: tissue not given
Description: as §1, §2, §3

[4] = system: CD4; test: mRNA expression of CD4 in PDAPP mice immunized with Aβ1-42 or a fragment, quantitative RT-PCR; settings: tissue not given
Description: as §1, §2, §3

[5] = system: IgG-1; test: mRNA expression of IgG-1 in PDAPP mice immunized with Aβ1-42 or a fragment, quantitative RT-PCR; settings: Fr cortex
Description: as §1, §2, §3

Substance	MCP-1 mRNA, ratio of Aβ-treated mice to non-Aβ-treated mice [1] [X]	Igk mRNA, ratio of Aβ-treated mice to non-Aβ-treated mice [2] [X]	IFN-γ mRNA, ratio of Aβ-treated mice to non-Aβ-treated mice [3]	CD4 mRNA, ratio of Aβ-treated mice to non-Aβ-treated mice [4] [X]	IgG-1 mRNA, ratio of Aβ-treated mice to non-Aβ-treated mice [5] [X]
Aβ1-5: fragment of Aβ1-42 used to immunize PDAPP mice (DAEFR; Amyloid-beta protein 42; UniProt P05067 672-676, looked up, fragment)	0.75	2.10	.8X	0.99	–
Aβ1-42: amyloid β-peptide 1-42 used to immunize PDAPP mice	–	–	–	–	300
